Legend:
[1] = target: T1, human recombinant adrenergic α1D receptor (Homo sapiens, UniProt P25100); assay: Adrenergic α1D radioligand binding ([3H]Prozosin)
T1 construct: expressed in transfected cells; host or cells: human embryonic kidney (HEK-293) cells
T1 sequence (P25100 1-572): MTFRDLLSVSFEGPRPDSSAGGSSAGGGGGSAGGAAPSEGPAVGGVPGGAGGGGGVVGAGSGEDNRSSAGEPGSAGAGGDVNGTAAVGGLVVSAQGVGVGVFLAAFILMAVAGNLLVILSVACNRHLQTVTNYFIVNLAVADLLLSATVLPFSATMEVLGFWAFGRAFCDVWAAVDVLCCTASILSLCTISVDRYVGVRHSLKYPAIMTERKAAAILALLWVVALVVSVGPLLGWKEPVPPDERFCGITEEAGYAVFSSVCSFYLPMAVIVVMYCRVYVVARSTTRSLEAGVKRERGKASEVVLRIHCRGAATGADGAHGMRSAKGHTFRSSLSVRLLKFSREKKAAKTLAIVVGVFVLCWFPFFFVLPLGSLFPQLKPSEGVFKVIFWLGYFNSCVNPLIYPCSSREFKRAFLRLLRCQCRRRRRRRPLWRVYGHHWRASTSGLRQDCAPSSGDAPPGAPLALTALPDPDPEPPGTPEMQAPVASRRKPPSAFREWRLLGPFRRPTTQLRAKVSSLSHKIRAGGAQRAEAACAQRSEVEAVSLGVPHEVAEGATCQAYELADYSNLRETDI
Procedure: Compounds of invention were incubated with 0.6 nM [^3H]Prozosin for 60 min at 25° C. Non-specific binding was estimated in the presence of 10 μM phentolamine. Receptor proteins were filtered and washed, the filters were then counted to determine [^3H]Prozosin specifically bound. Compounds were screened at 1 μM or lower, using 1% DMSO as vehicle. Compounds of the invention were tested in this biochemical assay. Biochemical assay results for representative compounds were presented as the percent inhibition of specific binding in Table 3.

[2] = target: T2, human recombinant adrenergic α2A receptor (Homo sapiens, UniProt P08913); assay: Adrenergic α2A radioligand binding ([3H]MK-912)
T2 construct: expressed in transfected cells; host or cells: insect Sf9 cells
T2 sequence (P08913 1-465): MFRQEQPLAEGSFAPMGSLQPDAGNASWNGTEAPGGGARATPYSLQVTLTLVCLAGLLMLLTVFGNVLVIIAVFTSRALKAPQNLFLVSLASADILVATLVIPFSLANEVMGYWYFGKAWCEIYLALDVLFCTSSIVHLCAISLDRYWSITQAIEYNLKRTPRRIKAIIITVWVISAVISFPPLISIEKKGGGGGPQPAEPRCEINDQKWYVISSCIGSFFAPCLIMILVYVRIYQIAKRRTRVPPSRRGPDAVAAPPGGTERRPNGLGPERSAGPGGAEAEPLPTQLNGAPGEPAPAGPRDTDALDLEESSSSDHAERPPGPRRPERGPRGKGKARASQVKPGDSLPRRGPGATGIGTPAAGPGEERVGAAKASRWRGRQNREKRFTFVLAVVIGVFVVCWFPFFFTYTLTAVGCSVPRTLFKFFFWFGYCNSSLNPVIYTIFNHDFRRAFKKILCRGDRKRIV
Procedure: To evaluate in radioligand binding assays the activity of compounds of the invention, human recombinant adrenergic α2A receptor expressed in insect Sf9 cells [Uhlen, S. et al., J. Pharmacol. Exp. Ther. (1994), 271:1558] in a modified Tris-HCl buffer (50 mM Tris-HCl, pH 7.4, 12.5 mM MgCl2, 2 mM EDTA) was used. Compounds of invention were incubated with 1 nM [^3H]MK-912 for 60 min at 25° C. MK912 was (2S-trans)-1,3,4,5′,6,6′,7,12b-octahydro-1′,3′-dimethyl-spiro[2H-benzofuro[2,3-a]quinolizine-2,4′(1′H)-pyrimidin]-2′(3′H)-one hydrochloride Non-specific binding was estimated in the presence of 10 μM WB-4101 (2-(2,6-dimethoxyphenoxyethyl)aminomethyl-1,4-benzodioxane hydrochloride). Receptor proteins were filtered and washed, the filters were then counted to determine [^3H]MK-912 specifically bound. Compounds were screened at 1 μM or lower, using 1% DMSO as vehicle. Compounds of the invention were tested in this biochemical assay. Biochemical assay results for representative compounds were presented as the percent inhibition of specific binding in Table 3.

[3] = target: T3, rat adrenergic α1B receptor (Rattus norvegicus, UniProt P15823); assay: Adrenergic α1B radioligand binding ([3H]Prozosin); set-up: species or system Wistar Rat; conditions: 0.1 μM ligand conc.
T3 construct: rat adrenergic α1B receptor obtained from Wistar Rat liver; from tissue; host or cells: Wistar Rat liver
T3 sequence (P15823 1-515): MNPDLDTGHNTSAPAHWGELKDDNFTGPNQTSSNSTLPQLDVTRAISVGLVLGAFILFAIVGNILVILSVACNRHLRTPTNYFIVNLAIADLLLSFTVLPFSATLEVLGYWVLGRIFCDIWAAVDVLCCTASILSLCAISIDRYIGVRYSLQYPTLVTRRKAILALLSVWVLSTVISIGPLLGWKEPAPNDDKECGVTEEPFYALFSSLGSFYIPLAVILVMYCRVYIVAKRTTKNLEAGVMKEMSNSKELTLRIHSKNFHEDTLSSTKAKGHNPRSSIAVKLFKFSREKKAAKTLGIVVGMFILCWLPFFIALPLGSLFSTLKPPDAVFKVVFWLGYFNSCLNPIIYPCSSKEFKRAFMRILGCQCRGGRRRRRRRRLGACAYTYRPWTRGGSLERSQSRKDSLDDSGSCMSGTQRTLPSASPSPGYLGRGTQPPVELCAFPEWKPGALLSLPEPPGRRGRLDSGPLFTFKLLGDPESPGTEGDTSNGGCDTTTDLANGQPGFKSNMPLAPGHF
Procedure: To evaluate in radioligand binding assays the activity of compounds of the invention, rat adrenergic α1B receptor obtained from Wistar Rat liver [Garcia-S'ainz, J. A. et al., Biochem. Biophys. Res. Commun. (1992), 186:760; Michel, A. D. et al., Br. J. Pharmacol. (1989), 98:883] in a modified Tris-HCl buffer (50 mM Tris-HCl buffer, pH 7.4, 0.5 mM EDTA) was used. Compounds of the invention were incubated with 0.25 nM [^3H]Prozosin for 60 min at 25° C. Non-specific binding was estimated in the presence of 10 μM phentolamine. Receptor proteins were filtered and washed, the filters were then counted to determine [^3H]Prozosin specifically bound. Compounds were screened at 1 μM or lower, using 1% DMSO as vehicle. Compounds of the invention were tested in this biochemical assay. Biochemical assay results for representative compounds were presented as the percent inhibition of specific binding in Table 3.

| SMILES | Percent Inhibition of ligand binding Adrenergic α1D ([1]; 1 μM ligand conc.) | Percent Inhibition of ligand binding Adrenergic α2A ([2]; 1 μM ligand conc.) | Percent Inhibition of ligand binding Adrenergic α1D ([1]; 0.1 μM ligand conc.) | Percent Inhibition of ligand binding Adrenergic α2A ([2]; 0.1 μM ligand conc.) | Percent Inhibition of ligand binding Adrenergic α1B [3] |
| --- | --- | --- | --- | --- | --- |
| Fc1ccc(CCn2c3c(c4cc(Cl)ccc42)CN2CCCC2C3)cc1 (stereo not shown) [Compound 2, 10-(4-fluorophenethyl)-7-chloro-2,3,5,10,11,11a-hexahydro-1H-indolizino[7,6-b]indole] | 23% | 20% | – | – | – |
| O=C(Cn1c2c(c3cccnc31)C1CCCN1CC2)N1CCCCC1 (stereo not shown) [Compound 38, 1-(piperidin-1-yl)-2-(2,3,5,6-tetrahydro-1H-pyrido[3′,2′:4,5]pyrrolo[2,3-g]indolizin-7(11cH)-yl)ethanone] | – | – | 4% | 4% | 8% |
| Fc1ccc(CCn2c3c(c4cc(Cl)ccc42)C2CCCN2CC3)cc1 (stereo not shown) [Compound 1, 7-(4-fluorophenethyl)-10-chloro-2,3,5,6,7,11c-hexahydro-1H-indolizino[7,8-b]indole] | 15% | 22% | – | – | – |
| O=C(Cn1c2c(c3cccnc31)CN1CCCC1C2)N1CCCCC1 (stereo not shown) [Compound 37, 1-(piperidin-1-yl)-2-(8,9,9a,10-tetrahydro-5H-pyrido[3′,2′:4,5]pyrrolo[3,2-f]indolizin-11(7H)-yl)ethanone] | – | – | 6% | 12% | 9% |
